Reference: patent US11859252B2, “Diagnostic and therapeutic methods for cancer” (Genentech, Inc., priority 2017, dated 2024)
“Also recorded” adds a separate entry of the source.

Legend:
[1] = tested on: 196 lung, colon, skin, and ovarian cancer cell lines; assay: 196 cell line screen, HM95573 and cobimetinib co-dilution; type: cell-based
Description: Compounds were screened in nine-point dose response using a three-fold dilution. Cells were seeded into 384-well plates 24 hours prior to compound addition. Cells were then incubated with compound for 72 hours or 120 hours before assaying viability (CellTiter-Glo, Promega). Assays were performed in biological triplicate. Cells were incubated (37° C., 5% CO2) in RPMI-1640, 2.5% FBS (72 hour assay) or 5% FBS (120 hour assay), and 2 mM glutamine throughout the assay. The reported IC50 and mean viability metrics are as follows: IC50 is the dose at which the estimated inhibition is 50% relative to untreated wells (i.e., absolute IC50). Mean viability is equivalent to the area under the log-dose/viability curve divided by the total number of tested doses.
For combination synergy studies, cells were plated in 384-well plates (Corning) and treated with varying concentrations of compound, either alone or in combination for 72 hours. Cell viability was determined using CellTiter-Glo Luminescent Cell Viability Assay (Promega, G7573). Synergistic effects were determined using the Bliss independence analysis methods (Greco et al. Pharmacol. Rev. 47: 331-385, 1995; Chou and Talalay. Adv. Enzyme Regul. 22:27-55, 1984; Chou. Cancer Res. 70: 440-446, 2010; Bliss. Ann. Appl. Biol. 25: 31, 1939).

pMEK, pERK, pRSK, pAKT = assay: Immunoblot of pathway markers after compound treatment; type: cell-based; conditions: A549 and HCT-116; 1 μM HM95573, 250 nM cobimetinib; FIGS. 5D-5E
Description: (§1) Cells lysed in lysis buffer (0.5% NP40, 20 mM Tris, pH 7.5, 137 mM NaCl, 10% glycerol, 1 mM EDTA) plus protease inhibitor mixture-complete mini (Roche Applied Science, 11836170001) and phosphatase inhibitor mix (Thermo, 78426). Lysates were centrifuged at 15,000 rpm for 10 minutes and the protein concentration determined using BCA (Thermo, 23227). Equal amounts of protein were subjected to SDS-PAGE NuPAGE 4-12% Bis-Tris Gel (Novex, WG-1403) and transferred to nitrocellulose membrane (BioRad, 170-4159). After blocking in blocking buffer (Li-Cor, 927-40000), membranes were incubated with the indicated primary antibodies and analyzed either by the addition of secondary antibodies IRDye 680LT Goat anti-Mouse IgG (H+L) (Li-Cor, 926-68050) or IRDye 800CW goat anti-Rabbit IgG (H+L) (Li-Cor, 926-32211). The membranes were visualized on the LiCor Odyssey CLx Scanner.

[2] = tested on: KRAS mutant syngeneic CRC xenograft model CT26; assay: CT26 tumor growth model; type: in vivo; conditions: 5 mg/kg each orally once a day, 21 days, vs either agent alone, FIGS. 5F-5G
[3] = tested on: NRAS mutant melanoma cell line; assay: Viability of NRAS mutant melanoma versus BRAF-V600E and wild-type lines; type: cell-based
Description: Compounds were screened in nine-point dose response using a three-fold dilution. Cells were seeded into 384-well plates 24 hours prior to compound addition. Cells were then incubated with compound for 72 hours or 120 hours before assaying viability (CellTiter-Glo, Promega). Assays were performed in biological triplicate. […] Mean viability is equivalent to the area under the log-dose/viability curve divided by the total number of tested doses.

[4] = tested on: MAPK pathway signaling (pERK, pRSK, DUSP6, SPRY4); assay: Tumor pharmacodynamics in tumor-bearing mice; type: in vivo; conditions: combination of LY3009120 and GDC-0973 vs either alone, 4 days of treatment, FIG. 3C
Description: GEM model tumor samples were collected and stored in RNALater (Qiagen, Valencia, CA). Total RNA was extracted with RNeasy Plus Mini kit (Qiagen) following manufacturer's instructions. RNA quantity was determined using Nanodrop (Thermo Scientific, Waltham, MA).
Transcriptional readouts were assessed using either a Fluidigm instrument or standard RT-PCR assays according to manufacturer's recommendations. RNA (100 ng) was subjected to cDNA synthesis/pre-amplification reactions using the Applied Biosystems High Capacity cDNA RT Kit and TaqMan PreAmp Master Mix as per the manufacturer's protocol (Life Technologies, Carlsbad, CA). […]
To prepare protein lysates, cells were washed once with ice-cold PBS and lysed in 1× Cell Extraction Buffer (Invitrogen) supplemented with protease inhibitor tablet (Roche) and phosphatase inhibitors (Sigma). Protein concentration was determined using BCA Protein Assay (Pierce). […] Antigen-antibody interaction was detected with HRP-conjugated goat anti-rabbit and goat anti-mouse antibodies (Jackson ImmunoResearch) using enhanced chemiluminescence detection reagents (Pierce) or with IRDye 800 conjugated, affinity purified anti rabbit IgG (LI-COR Biosciences) and Alexa Fluor 680 goat anti mouse IgG (Life Technologies) secondary antibodies using the Odyssey Infrared Imaging System (LI-COR Biosciences).

[5] = tested on: HCT116 colon xenograft tumor; assay: HCT116 colon xenograft tumor model; conditions: for tumor growth, single agent: LY-3009120 25 mg/kg IP QD, cobimetinib 5 mg/kg PO QD
Description: The formulations were mixed well by vortexing before dosing. Test articles were stored in a refrigerator set to maintain a temperature range of 4° C.-7° C.
Only animals that appeared to be healthy and that were free of obvious abnormalities were used for each study. Tumor volumes were determined using digital calipers (Fred V. Fowler Company, Inc.) using the formula (L×W×W)/2. […] Mice were weighed twice a week using a standard scale.

A549 cells = assay: Clonogenic (colony growth) assay; type: cell-based
Description: Cells were plated in duplicate in 6-well plates at 10,000 cells/well, allowed to attach overnight and treated for 8 days with the indicated compounds. Media with appropriate compounds was replenished every 72 hours. At 8 days cells were rinsed once with PBS, fixed and stained with crystal violet solution (Sigma Aldrich, HT90132) for 20 minutes and washed with water.

[6] = Plasma and tumor drug concentrations; type: in vivo, mice; conditions: combination with GDC-0973, FIG. 3D
BRAF-CRAF heterodimer = assay: CRAF immunoprecipitation (RAF dimerization); type: cell-based
Description: (§2) Cells were plated and lysed as described in immunoblotting method. Cell lysates were incubated with anti-CRAF (Millipore 07-396) or anti-BRAF antibody (Millipore 07-453) and 50 μl of Protein A agarose beads (Millipore 16-125) for 2 h at 4° C. After washing with lysis buffer plus protease and phosphatase inhibitor mixtures, protein A beads were incubated with 0.4 μg of unactive MEK1 (Millipore 14-420) in 40 μl of kinase buffer (20 mM MOPS, pH 7.2, 25 mM β-glycerol phosphate, 5 mM EGTA, 1 mM sodium orthovanadate, 1 mM DTT, 120 μM ATP, 18 mM MgCl2) for 30 min at 30° C. Samples were then analyzed by Western blot.

[7] = tested on: A549 KRAS-mutant lung cancer cell line; assay: Tool compound combination screen with AZ-628; type: cell-based; conditions: 1 μM AZ-628 versus DMSO, FIG. 1D-1E
Description: A compound library comprising 480 compounds arrayed in 9-point dose response was screened in the absence or presence of a fixed dose of either AZ-628 or DMSO in A549 cells. A549 cells were seeded into 384 well plates, and compound was added 24 h later. Cell viability was determined 120 h post-compound addition (CellTiter Glo). Curves were fitted, and both IC50 and mean viability metrics were calculated. The IC50 is the dose at which inhibition is 50% relative to untreated wells. The mean viability is the average of the fitted viabilities at each tested dose. Mean viability is equivalent to the area under the log-dose/viability curve divided by the total number of tested doses. All data were fitted using Genedata Screener (GDS) software. The combination metric was the difference in mean viability between the AZ-628 treated arm and the DMSO treated arm for each compound.

RAS-GTP = assay: Ras activity assay (RAF1-RBD pull-down); type: cell-based
Description: Levels of active GTP-loaded Ras were determined by GST-Raf-RBD pull-down assay (Thermo Scientific, 16117). In brief, GST-Raf-RBD fusion proteins were incubated with glutathione beads, and cells were collected in lysis buffer as recommended by the manufacturer. The cell lysates were incubated with the GST-Raf-RBD immobilized beads for 1.5 hours at 4° C. Bound proteins were eluted with SDS sample buffer and analyzed by Western blot.

pMEK = assay: Immunoblot of pMEK after cobimetinib in KRAS mutant and wild-type cell lines; type: cell-based; conditions: for pMEK levels after treatment: cobimetinib 24 hours
Description: as §1

pEGFR = assay: Immunoblot of pEGFR after cobimetinib; type: cell-based; conditions: cobimetinib 250 nM, 24 hours; FIG. 6K
Description: as §1

RAF dimers = biological target: T1, RAF dimers (Homo sapiens, UniProt P04049+P15056); assay: In vitro kinase assay of immunoprecipitated RAF with unactive MEK; type: biochemical
T1 construct: Cobimetinib-induced RAF dimers were immunoprecipitated from A549 cells; endogenous in cells; A549, H2122 and HCT116 for cobimetinib induction
Description: as §2

T1 sequence (P04049 whole entry): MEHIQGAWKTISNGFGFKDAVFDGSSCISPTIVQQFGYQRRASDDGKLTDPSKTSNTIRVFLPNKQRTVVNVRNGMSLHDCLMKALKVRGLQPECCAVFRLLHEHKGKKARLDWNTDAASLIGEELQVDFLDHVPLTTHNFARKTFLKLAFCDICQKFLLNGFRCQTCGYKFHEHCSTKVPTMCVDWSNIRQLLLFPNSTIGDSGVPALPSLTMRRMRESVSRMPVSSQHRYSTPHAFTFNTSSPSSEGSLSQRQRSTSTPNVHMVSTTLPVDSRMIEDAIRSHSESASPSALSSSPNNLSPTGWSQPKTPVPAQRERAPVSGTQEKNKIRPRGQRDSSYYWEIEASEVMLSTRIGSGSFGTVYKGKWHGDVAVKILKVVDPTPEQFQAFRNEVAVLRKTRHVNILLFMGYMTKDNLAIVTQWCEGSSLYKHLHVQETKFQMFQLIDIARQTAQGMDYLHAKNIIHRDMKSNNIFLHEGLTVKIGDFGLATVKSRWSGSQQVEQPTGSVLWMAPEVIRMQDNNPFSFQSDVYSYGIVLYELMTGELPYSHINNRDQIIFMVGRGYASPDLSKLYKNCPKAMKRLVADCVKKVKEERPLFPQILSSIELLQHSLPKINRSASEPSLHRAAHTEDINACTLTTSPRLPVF
T1 sequence (P15056 2-766 limits assumed): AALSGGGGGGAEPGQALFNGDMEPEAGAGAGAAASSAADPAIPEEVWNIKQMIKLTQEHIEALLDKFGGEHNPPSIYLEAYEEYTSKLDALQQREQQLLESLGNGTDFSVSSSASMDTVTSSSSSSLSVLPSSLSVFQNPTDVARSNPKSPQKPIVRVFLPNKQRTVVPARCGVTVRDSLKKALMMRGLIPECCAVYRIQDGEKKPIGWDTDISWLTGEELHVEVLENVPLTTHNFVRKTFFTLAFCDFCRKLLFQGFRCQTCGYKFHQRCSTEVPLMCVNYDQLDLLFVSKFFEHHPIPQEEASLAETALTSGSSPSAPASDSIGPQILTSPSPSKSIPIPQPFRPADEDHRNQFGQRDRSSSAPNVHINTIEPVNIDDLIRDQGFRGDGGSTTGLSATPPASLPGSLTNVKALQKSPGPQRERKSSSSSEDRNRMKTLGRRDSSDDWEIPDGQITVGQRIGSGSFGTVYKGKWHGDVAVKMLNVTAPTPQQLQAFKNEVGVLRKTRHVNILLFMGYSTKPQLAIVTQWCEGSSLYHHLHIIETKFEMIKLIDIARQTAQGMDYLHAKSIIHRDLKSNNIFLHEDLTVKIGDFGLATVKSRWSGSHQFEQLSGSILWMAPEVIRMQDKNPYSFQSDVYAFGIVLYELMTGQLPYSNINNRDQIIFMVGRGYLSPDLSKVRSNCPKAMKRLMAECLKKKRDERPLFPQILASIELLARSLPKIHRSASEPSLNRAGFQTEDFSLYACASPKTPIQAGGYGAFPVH

Q: For `Cc1ccc2c(Nc3cccc(Cl)c3F)nccc2c1NC(=O)c1csc2c(N)ncnc12` [HM95573], which “association of combination sensitivity with KRAS-G13D” value ([1]; HM95573 and cobimetinib, colorectal and lung lines, FIG. 6D) is on record?
A: This trend was most evident in colorectal cancer lines

Q: What about the “synergy score (positive Bliss excess) with cobimetinib by genotype” value ([1]; co-dilution with cobimetinib, three days, FIG. 5H) of the same compound?
A: significantly higher synergy scores were observed in RAS mutant cell lines compared to either BRAF-V600 mutants or wild-type; also recorded: greater synergy in RAS mutant cell lines and a subset of RAS/RAF wild-type cell lines relative to BRAF-V600 cell lines

Q: And the “combination activity with cobimetinib on pMEK, pERK, pRSK” value (pMEK, pERK, pRSK, pAKT)?
A: combination activity was also observed; also recorded: combination activity is observed

Q: What about the “tumor growth inhibition (TGI), combination with cobimetinib” value [2] of the same compound?
A: improved tumor growth inhibition (TGI) in vivo

Q: Which “effect on mean viability, NRAS mutant vs BRAF-V600E” value ([3]; FIG. 8A) does the source give for `CNc1ncc2cc(-c3cc(NC(=O)NCCC(C)(C)C)c(F)cc3C)c(C)nc2n1` [LY3009120] here?
A: approximately equivalent effects on mean viability

Q: And the “suppression of DUSP6 and SPRY4 in tumor” value [4]?
A: deeper suppression of downstream MAPK target genes, DUSP6 and SPRY4

Q: And the “suppression of pERK and pRSK in tumor” value ([4]; all time points)?
A: better suppression of pERK and pRSK

Q: What about the “tumor growth, combination with cobimetinib” value ([5]; HCT116, LY3009120+GDC-0973, FIG. 3A) of the same compound?
A: capable of effectively regressing the tumors

Q: And the “tumor growth, single agent” value ([5]; HCT116, FIG. 3A)?
A: modestly inhibited tumor growth

Q: And the “tolerability / body weight” value ([5]; HCT116 xenograft mice, combination with cobimetinib, FIG. 3B)?
A: well tolerated in the mice, resulting in little or minimal changes in body weight post-treatment

Q: And the “synergy with cobimetinib in colony formation” value (A549 cells; 8 days, crystal violet, FIG. 2F, 5E)?
A: marked synergy

Q: What about the “drug exposure in combination” value [6] of the same compound?
A: not due to increased drug exposure

Q: Which “concentration at which BRAF-CRAF heterodimer formation and increase in kinase activity occur” value (BRAF-CRAF heterodimer; A549, dose-dependent, FIG. 4E) does the source give for `O=C(c1ccc(F)c(F)c1Nc1ccc(I)cc1F)N1CC(O)([C@@H]2CCCCN2)C1` [cobimetinib] here?
A: 50 to 100 nM

Q: What about the “BRAF co-immunoprecipitation with CRAF” value (BRAF-CRAF heterodimer; KRAS mutant cell lines (A549, H2122, and HCT116), FIG. 4A) of the same compound?
A: BRAF strongly co-immunoprecipitated with CRAF

Q: And the “cell viability and 1050, NRAS mutant vs BRAF-V600E” value ([3]; separate study, FIGS. 8C and 8D)?
A: showed greater efficacy in the BRAF-V600E cell line relative to the NRAS mutant cell line

Q: What about the “hit ranking / mean viability difference with AZ-628” value [7] of the same compound?
A: top hit; also recorded: scored highest among the compounds tested

Q: What about the “tumor growth, single agent” value ([5]; HCT116, FIG. 3A) of the same compound?
A: modestly inhibited tumor growth

Q: And the “single-agent effect on cell growth” value (A549 cells; 8-day clonogenic, 50-100 nM cobimetinib, 100 nM AZ-628)?
A: had little effect on cell growth on their own

Q: And the RAS-GTP levels (RAS-GTP; KRAS mutant lines, cobimetinib treatment, FIG. 4A)?
A: elevated RAS-GTP levels at baseline and upon cobimetinib treatment; also recorded: increased RAS-GTP levels

Q: And the “active RAS-GTP in response to treatment” value (RAS-GTP; panel of colorectal cancer cell lines, FIG. 5I)?
A: Only cell lines showing synergy showed increased active RAS-GTP in response to cobimetinib treatment

Q: And the “pMEK levels after treatment” value (pMEK; KRAS mutant vs KRAS wild-type cells, FIG. 4A)?
A: an increase in the pMEK levels in the KRAS mutant cells but not the KRAS wild-type cells

Q: What about the “pMEK levels after treatment” value (pMEK; synergistic vs non-synergistic colon and lung lines, FIGS. 4B-4D) of the same compound?
A: an increase in the pMEK levels in the KRAS mutant and wild-type synergistic cells but not the KRAS mutant and wild-type non-synergistic cells

Q: What about the “induction of pMEK, KRAS-G13D vs non-KRAS-G13D” value (pMEK; colorectal cell lines, cobimetinib 250 nM, 24 hr, FIG. 6E) of the same compound?
A: stronger induction of pMEK in G13D cell lines; also recorded: more enhanced induction of pMEK following MEK inhibition relative to other KRAS mutants

Q: And the “EGFR activation (pEGFR levels)” value (pEGFR)?
A: little evidence of EGFR activation

Q: What about the “kinase activity of RAF dimers after treatment” value (RAF dimers; KRAS mutant cell lines, vs DMSO, FIG. 4A) of the same compound?
A: highly active

Q: And the “pMEK levels in in vitro RAF kinase assay” value (RAF dimers; colorectal lines with or without synergy, cobimetinib, FIG. 5B-5C)?
A: strong increases in pMEK levels after cobimetinib treatment were observed, primarily in the lines showing synergy
